# In patent publication US12187721B2, “Protein tyrosine phosphatase inhibitors” (Array BioPharma Inc., priority 2018, dated 2025):
# Where a name gives a salt, the structure may show the parent alone. Read-outs that look alike come from different tables or passages of the source.
# Key:
# [1] = target: T1, full-length SHP2 (His6-tagged SHP2(2-527)) (Homo sapiens, UniProt Q06124); assay: SHP2 Enzymatic Assay (fluorescence intensity kinetic assay, DiFMUP hydrolysis); format: biochemical
# T1 construct: His6-tagged SHP2(2-527); His6; made in house; host or cells: E. coli
# Outline: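 1 nM His6-SHP2(2-527), activated by 1 μM bis-phosphopeptide, hydrolysed 50 μM DiFMUP in 25 mM HEPES pH 7.4 with 1 mM DTT, 50 mM KCl and 2% DMSO. DiFMU fluorescence (Ex 355/Em 460 nm) was read kinetically for 15 min at ambient temperature.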
# [2] = test system: ERK1/2 (Thr202/Tyr204) phosphorylation in KYSE520 cells; assay: Cellular Phospho-p44/42 MAPK (Erk 1/2) (Thr202/Tyr204) Assay (In-Cell Western); format: cell-based; settings: Homo sapiens, KYSE-520, 1 h, read-out: Biological Example 2 IC50 (nM)
# Method: KYSE520 cells were obtained from DSMZ and grown in RPMI supplemented with 10% fetal bovine serum, pennicillin/streptomycin, 2 mM L-alanyl-L-glutamine dipeptide in 0.85% NaCl (Glutamax™), non-essential amino acids, and sodium pyruvate. Cells were plated in 96-well plates at 30,000 cells/well and allowed to attach overnight at 37° C./5% CO2. Cells were treated with compounds prepared as a 10-point, 1:3 dilution series (range: 20 μM-1 nM), with a final DMSO concentration of 0.5%. After 1 hour incubation, cells were fixed in 3.7% formaldehyde in Dulbecco's phosphate-buffered saline (“dPBS”) at room temperature for 20 minutes. Cells were then washed with dPBS and permeabilized in 100% MeOH at room temperature for 10 minutes. Following permeabilization, cells were washed in dPBS and incubated in LI-COR Blocking Buffer (LI-COR Biosciences, Cat #927-40000) for 1 hour or longer. Plates were then incubated with an antibody specific for the MEK-dependent ERK1/2 phosphorylation sites, threonine 202 and tyrosine 204 (Cell Signaling Technologies; Cat #9101), downstream of SHP2 in the MAP kinase signal transduction pathway, as well as GAPDH (Millipore; Cat #MAB374). pErk1/2 (Thr202/Tyr204) antibody was diluted in LI-COR blocking buffer containing 0.05% polysorbate-20 (Tween-20) at 1:250; GAPDH was diluted at 1:2,500. The plates were incubated overnight at 4° C. After washing with PBS/0.05% Tween-20, the cells were incubated with fluorescently-labeled secondary antibodies (Anti-rabbit-Alexa Flour680, Invitrogen Cat #A21109; Anti-mouse-IRDye800CW, Li-cor Bioscieces Cat #926-32210, both at 1:1000 dilution) for 1 hour. Cells were then washed, as above, and analyzed for fluorescence at both 680 nm and 800 nm wavelengths using the Aerius Infrared Imaging System (LI-COR Biosciences, Model 9250). Phosphorylated Erk1/2 (Thr202/Tyr204) signal was normalized to GAPDH signal for each well. IC50 values were calculated from the normalized values using a 4-parameter fit in BioAssay software. […] The reported IC50 in Table 2 may be from a single assay or the mean of multiple assays.
# [3] = full-length SHP2 with 1 μM activating peptide, 50 μM DiFMUP, single assay or mean of multiple assays, read-out: Biological Example 1 IC50
# T1 sequence (Q06124 2-527): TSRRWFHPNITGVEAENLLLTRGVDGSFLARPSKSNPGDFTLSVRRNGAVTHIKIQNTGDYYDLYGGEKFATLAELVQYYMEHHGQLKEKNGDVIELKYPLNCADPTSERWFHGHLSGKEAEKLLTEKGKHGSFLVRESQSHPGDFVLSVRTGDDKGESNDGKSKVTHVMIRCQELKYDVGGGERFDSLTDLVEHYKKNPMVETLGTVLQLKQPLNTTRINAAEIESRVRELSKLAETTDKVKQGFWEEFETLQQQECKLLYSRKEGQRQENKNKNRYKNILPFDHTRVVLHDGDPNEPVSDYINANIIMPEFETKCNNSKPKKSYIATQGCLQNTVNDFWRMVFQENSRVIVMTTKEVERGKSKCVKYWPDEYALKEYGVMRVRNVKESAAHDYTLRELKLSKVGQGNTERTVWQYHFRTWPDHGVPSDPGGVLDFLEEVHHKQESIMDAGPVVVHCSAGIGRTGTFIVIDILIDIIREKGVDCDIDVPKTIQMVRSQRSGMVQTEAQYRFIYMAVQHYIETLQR
Structure (SMILES),IC50 [1] [nM],IC50 [2] [nM],"IC50 [1, 3] [nM]"
"Nc1nccc(Sc2ccc3nc(N4CCC5(CC4)CC(F)(F)C[C@H]5N)cnc3n2)c1Cl (stereo in doubt) [Example 218, 8-(6-((2-amino-3-chloropyridin-4-yl)thio)pyrido[2,3-b]pyrazin-2-yl)-3,3-difluoro-8-azaspiro[4.5]decan-1-amine]",47,67,
"CC1(N)CCN(c2cnc3nc(Sc4ccnc(N)c4Cl)ccc3n2)CC1 [Example 1, 4-((2-(4-amino-4-methylpiperidin-1-yl)pyrido[2,3-b]pyrazin-6-yl)thio)-3-chloropyridin-2-amine]",,59,33
"C[C@@H]1OCC2(CCN(c3cnc4nc(Sc5cccc(Cl)c5Cl)ccc4n3)CC2)[C@@H]1N [Example 4, (3S,4S)-8-(6-((2,3-dichlorophenyl)thio)pyrido[2,3-b]pyrazin-2-yl)-3-methyl-2-oxa-8-azaspiro[4,5]decan-4-amine]",64,550,
"C[C@@H]1OCC2(CCN(c3cnc4nc(Sc5ccnc(N)c5Cl)ccc4n3)CC2)[C@@H]1N [Example 13, (3S,4S)-8-(6-((2-amino-3-chloropyridin-4-yl)thio)pyrido[2,3-b]pyrazin-2-yl)-3-methyl-2-oxa-8-azaspiro[4,5]decan-4-amine]",84,79,
"C[C@@H]1OCC2(CCN(c3cnc4nc(Sc5ccnc(N6CCCC6)c5Cl)ccc4n3)CC2)[C@@H]1N [Example 25, (3S,4S)-8-(6-((3-chloro-2-(pyrrolidin-1-yl)pyridin-4-yl)thio)pyrido[2,3-b]pyrazin-2-yl)-3-methyl-2-oxa-8-azaspiro[4.5]decan-4-amine]",100,650,
"CNc1nccc(Sc2ccc3nc(N4CCC5(CC4)CO[C@@H](C)[C@H]5N)cnc3n2)c1Cl [Example 33, (3S,4S)-8-(6-((3-chloro-2-(methylamino)pyridin-4-yl)thio)pyrido[2,3-b]pyrazin-2-yl)-3-methyl-2-oxa-8-azaspiro[4.5]decan-4-amine]",100,80,
"Nc1nccc(Sc2ccc3nc(N4CCC[C@@H](N)CC4)cnc3n2)c1Cl [Example 41, (R)-1-(6-((2-amino-3-chloropyridin-4-yl)thio)pyrido[2,3-b]pyrazin-2-yl)azepan-4-amine]",56,110,
"Cc1nccc(Sc2ccc3nc(N4CCC(N)(CO)CC4)cnc3n2)c1Cl [Example 57, (4-amino-1-(6-((3-chloro-2-methylpyridin-4-yl)thio)pyrido[2,3-b]pyrazin-2-yl)piperidin-4-yl)methanol]",49,91,
"Cc1nccc(Sc2ccc3nc(N4[C@H]5CC[C@H]4CC(N)C5)cnc3n2)c1Cl (stereo partly drawn) [Example 67, (1R,3s,5S)-8-(6-((3-chloro-2-methylpyridin-4-yl)thio)pyrido[2,3-b]pyrazin-2-yl)-8-azabicyclo[3.2.1]octan-3-amine dihydrochloride]",42,48,
"C[C@@H]1OCC2(CCN(c3cnc4nc(Sc5ccnc(N6CCC[C@H]6CO)c5Cl)ccc4n3)CC2)[C@@H]1N [Example 71, ((S)-1-(4-((2-((3S,4S)-4-amino-3-methyl-2-oxa-8-azaspiro[4.5]decan-8-yl)pyrido[2,3-b]pyrazin-6-yl)thio)-3-chloropyridin-2-yl)pyrrolidin-2-yl)methanol]",120,176,
"Nc1nccc(Sc2ccc3nc(N4CCC5(CC4)Cc4ccccc4[C@H]5N)cnc3n2)c1Cl [Example 76, (S)-1′-(6-((2-amino-3-chloropyridin-4-yl)thio)pyrido[2,3-b]pyrazin-2-yl)-1,3-dihydrospiro[indene-2,4′-piperidin]-1-amine]",,8,28
"C[C@@H]1OCC2(CCN(c3cnc4nc(Sc5ccnc(N6CCC(O)CC6)c5Cl)ccc4n3)CC2)[C@@H]1N [Example 78, 1-(4-((2-((3S,4S)-4-amino-3-methyl-2-oxa-8-azaspiro[4.5]decan-8-yl)pyrido[2,3-b]pyrazin-6-yl)thio)-3-chloropyridin-2-yl)piperidin-4-ol]",331,87,
"CN[C@H]1CCCN(c2cnc3nc(Sc4ccnc(N)c4Cl)ccc3n2)CC1 [Example 91, (S)-1-(6-((2-amino-3-chloropyridin-4-yl)thio)pyrido[2,3-b]pyrazin-2-yl)-N-methylazepan-4-amine]",106,317,
"N[C@@H]1c2cccnc2CC12CCN(c1cnc3nc(Sc4ccnc(NCCO)c4Cl)ccc3n1)CC2 [Example 108, (S)-2-((4-((2-(5-amino-5,7-dihydrospiro[cyclopenta[b]pyridine-6,4′-piperidin]-1′-yl)pyrido[2,3-b]pyrazin-6-yl)thio)-3-chloropyridin-2-yl)amino)ethan-1-ol]",84,11,
"N[C@@H]1c2cccnc2CC12CCN(c1cnc3nc(Sc4ccnc(N5CCC(O)CC5)c4Cl)ccc3n1)CC2 [Example 209, (S)-1-(4-((2-(5-amino-5,7-dihydrospiro[cyclopenta[b]pyridine-6,4′-piperidin]-1′-yl)pyrido[2,3-b]pyrazin-6-yl)thio)-3-chloropyridin-2-yl)piperidin-4-ol]",40,,
"NCC1(F)CCN(c2cnc3nc(Sc4ccnc(N)c4Cl)ccc3n2)CC1 [Example 211, 4-((2-(4-(aminomethyl)-4-fluoropiperidin-1-yl)pyrido[2,3-b]pyrazin-6-yl)thio)-3-chloropyridin-2-amine]",54,,
"NCC1(F)CCN(c2cnc3nc(Sc4cccc(Cl)c4Cl)ccc3n2)CC1 [Example 212, (1-(6-((2,3-dichlorophenyl)thio)pyrido[2,3-b]pyrazin-2-yl)-4-fluoropiperidin-4-yl)methanamine]",197,,
"Nc1nccc(Sc2ccc3nc(N4[C@@H]5CC[C@H]4[C@@H](N)C5)cnc3n2)c1Cl [Example 213, (1S,2S,4R)-7-(6-((2-amino-3-chloropyridin-4-yl)thio)pyrido[2,3-b]pyrazin-2-yl)-7-azabicyclo[2.2.1]heptan-2-amine]",112,,
"C[C@@H]1OCC2(CCN(c3cnc4nc(Sc5ccnc6[nH]ncc56)ccc4n3)CC2)[C@@H]1N [Example 214, (3S,4S)-8-(6-((1H-pyrazolo[3,4-b]pyridin-4-yl)thio)pyrido[2,3-b]pyrazin-2-yl)-3-methyl-2-oxa-8-azaspiro[4.5]decan-4-amine]",304,,
"Nc1nccc(Sc2ccc3nc(N4CCO[C@@H]5CNC[C@H]54)cnc3n2)c1Cl [Example 215, 3-chloro-4-((2-((4aR,7aR)-hexahydropyrrolo[3,4-b][1,4]oxazin-4(4aH)-yl)pyrido[2,3-b]pyrazin-6-yl)thio)235yridine-2-amine]",780,,
"C[C@H]1CC[C@H](N)CN1c1cnc2nc(Sc3ccnc(N)c3Cl)ccc2n1 [Example 216, 4-((2-((2S,5S)-5-amino-2-methylpiperidin-1-yl)pyrido[2,3-b]pyrazin-6-yl)thio)-3-chloropyridin-2-amine]",3080,,
"C[C@@H]1OCC2(CCN(c3cnc4nc(Sc5ncnc(N)c5Cl)ccc4n3)CC2)[C@@H]1N [Example 217, (3S,4S)-8-(6-((6-amino-5-chloropyrimidin-4-yl)thio)pyrido[2,3-b]pyrazin-2-yl)-3-methyl-2-oxa-8-azaspiro[4.5]decan-4-amine]",845,,
"COc1ccc2c(c1)[C@@H](N)C1(CCN(c3cnc4nc(Sc5ccnc(N)c5Cl)ccc4n3)CC1)C2 [Example 219, (S)-1′-(6-((2-amino-3-chloropyridin-4-yl)thio)pyrido[2,3-b]pyrazin-2-yl)-6-methoxy-1,3-dihydrospiro[indene-2,4′-piperidin]-1-amine]",4190,,
"Nc1nccc(Sc2ccc3nc(N4CCC5(CC4)Cc4c(Cl)cccc4[C@@H]5N)cnc3n2)c1Cl [Example 220, (R)-1′-(6-((2-amino-3-chloropyridin-4-yl)thio)pyrido[2,3-b]pyrazin-2-yl)-4-chloro-1,3-dihydrospiro[indene-2,4′-piperidin]-1-amine]",96,,
"C[C@@H]1OCC2(CCN(c3cnc4nc(Sc5cccnc5C(F)(F)F)ccc4n3)CC2)[C@@H]1N [Example 221, (3S,4S)-3-methyl-8-(6-((2-(trifluoromethyl)pyridin-3-yl)thio)pyrido[2,3-b]pyrazin-2-yl)-2-oxa-8-azaspiro[4.5]decan-4-amine]",183,,
